Key:
SMYD3-GST tag protein = target: T1, SMYD3-GST tag protein (Homo sapiens, UniProt Q9H7B4); assay: Biolayer interferometry (BLI) binding assay; conditions: steady-state analysis, read-out: equilibrium dissociation constant (K D)
T1 construct: purchased BPS Bioscience
T1 sequence (Q9H7B4 1-428): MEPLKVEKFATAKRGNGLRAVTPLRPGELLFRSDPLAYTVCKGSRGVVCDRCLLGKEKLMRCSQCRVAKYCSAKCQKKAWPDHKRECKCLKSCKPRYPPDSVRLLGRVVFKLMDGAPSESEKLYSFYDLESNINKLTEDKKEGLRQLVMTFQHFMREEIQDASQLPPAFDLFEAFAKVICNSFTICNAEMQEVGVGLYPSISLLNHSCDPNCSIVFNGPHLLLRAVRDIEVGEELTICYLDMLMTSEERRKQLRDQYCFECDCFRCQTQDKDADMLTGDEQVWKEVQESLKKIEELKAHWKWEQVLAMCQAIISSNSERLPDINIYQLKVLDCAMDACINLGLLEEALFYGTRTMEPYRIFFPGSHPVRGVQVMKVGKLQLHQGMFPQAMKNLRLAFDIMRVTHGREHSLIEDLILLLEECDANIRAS
Procedure: Next, to test the binding affinity of novel small molecules to SMYD3, BLI analyses were performed to determine the binding affinity of the two series of novel small molecules targeting SMYD3. SMYD3‐glutathione S‐transferase (GST)‐tagged protein was immobilized onto GST biosensors and used to determine the binding affinity of all respective small molecules and labeled probes. The binding and dissociation curves were generated in real time by applying the SMYD3‐GST label proteins onto the biosensor surfaces, followed by monitoring small molecules interaction across several concentrations. […] SMI1 has been renamed ZYZ384 and further tested for anticancer activities using both in vitro and in vivo models.
The SMYD3‐GST tag protein (BPS Bioscience) was immobilized onto a GST biosensor (Fortebio). ZYZ384 was tested across the concentrations range of 6.25–200 µM. After baseline setup using Phosphate buffer saline (PBS), the biosensor tips were immersed in wells containing ZYZ384 continuous diluent for 180 s to combine, followed by a 180‐s dissociation step. They calculated K D value with a 1:1 model in data analysis software 9.0 (Fortebio).

H3K4me3 = H3K4me3 expression in tumor tissue (Western blot); type: in vivo, nude mice; conditions: ZYZ384 treatment groups versus control group
Procedure: (§1) In order to explore the antitumor mechanism of ZYZ384, the inhibitory effect of ZYZ384 on SMYD3 was determined in tumor tissues. […] In parallel, the expression of H3K4me3 was also noted to decrease in a similar pattern to that of SMYD3 (Figure 5B). The tumor tissues from control and high‐dosage treatment group animals were isolated. Since SMYD3 can tri‐methylated H3K4, ChIP‐seq analysis was used. This method allowed for annotating H3K4me3 occupancy on genes (Figure 5C). Global H3K4me3 occupancy decreased near annotation genes' transcription start site (TSS; Figure 5D). H3K4me3 is often enriched at activated promoters near TSSs. When combined with Kyoto Encyclopedia of Genes and Genomes (KEGG) pathway enrichment analysis (Figure 5E) and Gene Ontology (GO) functional enrichment analysis (Figure 5F), attention focus on the AKT pathway, cell proliferation, and migration functions. Visualized reads and signal strength of H3K4me3 for the Rac1 gene at the promoter region decreased following treatment with ZYZ384 (Figure 5G). […]
(§2) Isolated protein (30 µg) was obtained from tissues, separated on a sodium dodecyl sulfate‐polyacrylamide gel electrophoresis (SDS‐PAGE) gel, and transferred to a polyvinylidene fluoride membrane. […] The immunoreactive protein is visualized by enhanced chemiluminescence, and the signal intensity was detected and quantified using ImageJ.

Water solubility = type: physicochemical
Text: We were granted a Chinese patent (CN114246851A) to protect the structure and activity of ZYZ384, the effectiveness of ZYZ384 at high concentrations presents a challenge for future clinical use. […] Currently, we are trying to transform it into hydrochloride or culture cocrystallization to improve its solubility, bioavailability, and druggability. Drug resistance and combination therapy of ZYZ384 on other models will be gradually carried out in the follow‐up work. Although we developed a small molecule targeting SMYD3, we still need to figure out whether it is a selective inhibitor, and related research is to be continued.

Huh7 cells = assay: MTT cell viability; type: cell-based; conditions: Homo sapiens, Huh-7, 24 h
HCT116 cells = assay: MTT cell viability; type: cell-based; conditions: Homo sapiens, HCT-116, 24 h
Procedure: (§3) The cytotoxicity of ZYZ384 was determined across several different cancer cell lines. 3‐(4,5‐Dimethylthiazol‐2‐yl)‐2,5‐diphenyltetrazolium bromide (MTT) assay was used to assess cell viability. […] The cancer cell lines tested include human liver carcinoma cell HepG2, adenocarcinoma human alveolar basal epithelial cell A549, human colon carcinoma cell HTC116, human breast adenocarcinoma cell MDA‐MB‐231, and human pancreatic adenocarcinoma cell Miapaca2. […] In addition, ZYZ384 had low toxicity when tested in normal liver cells (LO2; Figure 3H).
(§4) Human HepG2, A549, HCT116, MDA‐MB‐231, and Miapaca2 cells were purchased from American Type Culture Collection (ATCC) and cultured in DMEM medium supplemented with 1% penicillin/streptomycin and 10% FBS at 37°C under 5% CO2 atmosphere and 95% air. Trypsin EDTA was used for cell passage.
(§5) Cell viability was assessed in several cancer cell lines and determined using the MTT assay in a 96‐well plate format. In brief, cells from […] medium (1 × 10^4/well) were inoculated in 96‐well plates and treated with ZYZ384. After 24 h of treatment, cell viability was determined by adding 1 mg/mL MTT‐containing medium for 4 h, followed by […] Dimethyl sulfoxide (DMSO) to dissolve formazan. The absorbance at 570 nm was recorded using a microplate ultraviolet/visible (UV/VIS) spectrophotometer (Tecan).

A549 cells = assay: MTT cell viability; type: cell-based; conditions: Homo sapiens, 24 h
Procedure: as §3, §4, §5

Miapaca2 cells = assay: MTT cell viability; type: cell-based; conditions: Homo sapiens, MIA PaCa-2, 24 h
Procedure: as §3, §4, §5

HepG2 cells = assay: MTT cell viability; type: cell-based; conditions: Homo sapiens, 24 h
Procedure: as §3, §4, §5

MDA-MB-231 cells = assay: MTT cell viability; type: cell-based; conditions: Homo sapiens; MDA-MB-231, MTT, 24 h
Procedure: as §3, §4, §5

SMYD3 [1] = target: T2, SMYD3 (Homo sapiens, UniProt Q9H7B4); assay: SMYD3 homogeneous assay kit (AlphaELISA); type: biochemical; conditions: different concentrations, 3 h incubation
T2 construct: purchased BPS Bioscience
T2 sequence (Q9H7B4 1-428): T1 sequence (Q9H7B4 1-428)
Procedure: The homogeneous assay kit was used to evaluate ZYZ384 inhibition activity on SMYD3. As we know, SMYD3 can catalyze the di‐ and tri‐methylation status of lysine4 of histone H3. This protein is also reported to drive the methylation of a lysine residue present in the protein […] (MAP3K2). Therefore, a series of different concentrations of ZYZ384 were incubated with SMYD3, and the activity was determined using the kit.
The commercial SMYD3 homogenous assay kit is designed to detect SMYD3 activity for screening and analytical applications. The SMYD3 homogenous assay kit is available in a convenient AlphaELISA format with GST‐labeled SMYD3 substrate, primary antibody, methylation detection buffer, and purification of SMYD3 for 384 enzyme reactions. The key to the SMYD3 homogenous assay is a particular antibody that recognizes methylated substrates. Using the kit, methyltransferase can be detected in three simple steps on a microtitration plate. First, samples containing the SMYD3 enzyme and ZYZ384 in different dosages were incubated in substrates for 3 h. Next, the receptor bead and primary antibody are added, the donor bead is added, and the Alpha counts are recorded.

LO2 cells = assay: MTT cell viability, normal liver cells; type: cell-based, human
Procedure: as §3, §5

C57BL/6 mice = assay: Short-term toxicity study of C57BL/6 mice; type: in vivo; conditions: oral
Procedure: The toxicity of ZYZ384 (Figure 4A) was determined using C57BL/6 mice in pilot studies to assess the safety and the maximum‐tolerable dose (MTD) determined (as shown in Figure 4B). No toxicity was reported in C57BL/6 mice orally administrated with 2 g/kg of ZYZ384 one time, and a survival rate of 100% was reached after 2 weeks of treatment. No abnormalities in food and water consumption are reported during this time, nor any unusual spontaneous activities; a reported […] for ZYZ384 >2 g/kg is noted for the current work.
C57BL/6 mice were randomly divided into two groups (n = 10) to determine the short‐term toxicity of ZYZ384. Mice were given the maximum dose of 2 g/kg orally administered ZYZ384 once, while the control group was treated with the same volume of sterilized water. The health conditions of all mice were monitored for 2 weeks.

SMYD3 [2] = assay: SMYD3 expression in tumor tissue (Western blot); type: in vivo, nude mice; conditions: ZYZ384 treatment groups versus control group
Procedure: as §1, §2

SMYD3 [3] = assay: SMYD3 overexpression by transfection in LO2 cells and ZYZ384 treatment; type: cell-based, human; conditions: LO2 transfected with SMYD3 OE plasmid, 24 h treatment
Procedure: as §3
SMYD3 overexpression (SMYD3 OE) plasmid (Sino Biological) was mixed with lipofectamine 2000 for plasmid transfection. After transfection for 6 h, cells were exposed to the indicated ZYZ384 treatments for another 24 h.

HepG2 tumors = assay: HepG2 tumor-bearing nude mouse model (CDX); type: in vivo, nude mice
Procedure: The in vivo antitumor effect of ZYZ384 was assessed using a HepG2 tumor‐bearing nude mouse model (cell‐derived xenograft, CDX; Figure 4D).
The tumor‐bearing nude mice model was established by direct injection of hepG2 cells into the left armpit of nude mice. Animals were subsequently divided into five groups (n = 7). All compounds were applied via intragastric administration, and sorafenib was used as the positive control. Other groups, except the control group, were treated with different concentrations of ZYZ384. Body weight and tumor volume were monitored and recorded throughout the treatment period.

**Q.** Which Kd (SMYD3-GST tag protein) does the source give for `COc1ccc(/N=C2/c3ccccc3/C(=N/c3ccc(OC)cc3)C2(C)C)cc1` [ZYZ384, (1Z,3Z)-N1,N3-bis(4-methoxyphenyl)-2,2-dimethyl-1H-indene-1,3(2H)-diimine] here?
**A.** 78 µM

**Q.** And the “expression of H3K4me3 in tumor tissues” value (H3K4me3)?
**A.** decrease

**Q.** And the water solubility (Water solubility)?
**A.** poor water solubility

**Q.** What about the IC50 (Huh7 cells) of the same molecule?
**A.** 5.45 µM

**Q.** And the IC50 (HCT116 cells)?
**A.** 15.2 µM

**Q.** And the IC50 (A549 cells)?
**A.** 20.7 µM

**Q.** And the IC50 (Miapaca2 cells)?
**A.** 13.8 µM

**Q.** What about the IC50 (HepG2 cells) of the same molecule?
**A.** 5.23 µM

**Q.** And the IC50 (MDA-MB-231 cells)?
**A.** 7.28 µM

**Q.** And the “SMYD3 activity (alpha counts)” value (SMYD3 [1])?
**A.** inhibits SMYD3 in a concentration‐dependent manner

**Q.** And the IC50 (LO2 cells; Homo sapiens, L02, LO2 normal liver cells, MTT, 24 h)?
**A.** 26.7 µM

**Q.** What about the “toxicity in normal liver cells” value (LO2 cells; LO2) of the same molecule?
**A.** low toxicity

**Q.** What about the LD5 (C57BL/6 mice) of the same molecule?
**A.** > 2000 mg/kg

**Q.** What about the toxicity (C57BL/6 mice; 2 g/kg one time, 2 weeks observation) of the same molecule?
**A.** No toxicity

**Q.** And the survival rate (C57BL/6 mice; 2 g/kg, after 2 weeks)?
**A.** 100%

**Q.** What about the “SMYD3 expression in tumor tissues” value (SMYD3 [2]) of the same molecule?
**A.** significantly diminished

**Q.** And the SMYD3 overexpression (SMYD3 [3])?
**A.** suppressed

**Q.** And the “body weight changes during treatment” value (HepG2 tumors; HepG2 tumor-bearing nude mice)?
**A.** no noticeable body weight changes

**Q.** And the “growth suppression in HepG2 tumors” value (HepG2 tumors; nude mice, 100 mg/kg intragastric, versus sorafenib 100 mg/kg)?
**A.** better than that of sorafenib
